# Source: article doi:10.1101/2020.08.16.252940v1 (biorxiv, 2020)
# Key:
# [1] = target: VDR (Homo sapiens, UniProt P11473); details: antagonist mode; agonist and cell line not told
# [2] = target: VDR-LBD (Homo sapiens, UniProt P11473); assay: biochemical
# Sequence of VDR-LBD (P11473 118-427 limits assumed): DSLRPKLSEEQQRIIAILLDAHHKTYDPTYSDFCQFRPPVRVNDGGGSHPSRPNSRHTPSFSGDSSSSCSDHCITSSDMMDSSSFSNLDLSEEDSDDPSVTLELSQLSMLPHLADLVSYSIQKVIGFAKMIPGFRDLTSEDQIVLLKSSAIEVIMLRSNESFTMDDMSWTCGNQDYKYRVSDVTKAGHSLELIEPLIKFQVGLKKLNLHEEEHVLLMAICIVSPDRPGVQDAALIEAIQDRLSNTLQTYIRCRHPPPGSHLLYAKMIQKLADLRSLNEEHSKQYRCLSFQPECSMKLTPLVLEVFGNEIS
# Sequence of VDR (P11473 whole entry, the tested form may be a part): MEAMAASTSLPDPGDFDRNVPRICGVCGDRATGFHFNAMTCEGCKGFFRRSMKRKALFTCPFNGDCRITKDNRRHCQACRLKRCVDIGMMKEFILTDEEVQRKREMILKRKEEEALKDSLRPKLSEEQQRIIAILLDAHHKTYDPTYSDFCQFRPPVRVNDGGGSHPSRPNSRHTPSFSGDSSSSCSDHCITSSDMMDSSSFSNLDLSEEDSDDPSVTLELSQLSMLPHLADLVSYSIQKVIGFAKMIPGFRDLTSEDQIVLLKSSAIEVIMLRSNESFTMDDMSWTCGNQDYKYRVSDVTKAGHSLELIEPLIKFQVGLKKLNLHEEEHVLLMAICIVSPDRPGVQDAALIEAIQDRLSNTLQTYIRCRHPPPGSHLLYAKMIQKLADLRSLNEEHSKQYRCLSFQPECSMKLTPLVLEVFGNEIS
Compound,inhibition only at concentrations above [1] [µM],IC50 [2] [nM]
CC(C)CCC[C@@H](C)[C@H]1CC[C@H]2C3=CC=C4C[C@@H](O)CC[C@]4(C)[C@H]3CC[C@]12C [7-dehydrocholesterol],> 100,
CC(C)CCC[C@@H](C)[C@H]1CC[C@@H]2[C@]1(C)CC[C@H]1[C@]23C=C[C@]2(C[C@@H](OC(=O)CBr)CC[C@]12C)n1c(=O)n(C)c(=O)n13 [MeTC7],,1860
